We go through one molecule from PMC7714403 (JCI Insight, 2020).

Assay in all cases: KiNativ, MOLM13 live cells
What all share (format): cell-based

For test [1], the target named is eEF2K (Homo sapiens, UniProt O00418). Conditions: MOLM-13; 100 nM, 2 hours; ATP; read-out: Inhibition vs DMSO. Here is the method:
(§1) Samples were analyzed by KiNativ in situ kinase profiling by ActivX Biosciences.

In test [2] the target is NEK4 (Homo sapiens, UniProt P51957). As to conditions: MOLM-13; 100 nM, 2 hours; Lys2; read-out: Inhibition vs DMSO. Here is the method: as §1
Test [3] addresses T1, MSK2 domain1 (Homo sapiens, UniProt O75676).
T1 construct: MSK2 domain1
As to conditions: MOLM-13, 2 h, 100 nM. How it is done: as §1

For test [4], the target named is TAK1 (Homo sapiens, UniProt O43318). Conditions: MOLM-13; 100 nM, 2 hours; Lys2; read-out: Inhibition vs DMSO. Here is the method: as §1
Test [5] concerns the target T2, IKKb (Homo sapiens, UniProt O14920).
T2 sequence (O14920 1-756): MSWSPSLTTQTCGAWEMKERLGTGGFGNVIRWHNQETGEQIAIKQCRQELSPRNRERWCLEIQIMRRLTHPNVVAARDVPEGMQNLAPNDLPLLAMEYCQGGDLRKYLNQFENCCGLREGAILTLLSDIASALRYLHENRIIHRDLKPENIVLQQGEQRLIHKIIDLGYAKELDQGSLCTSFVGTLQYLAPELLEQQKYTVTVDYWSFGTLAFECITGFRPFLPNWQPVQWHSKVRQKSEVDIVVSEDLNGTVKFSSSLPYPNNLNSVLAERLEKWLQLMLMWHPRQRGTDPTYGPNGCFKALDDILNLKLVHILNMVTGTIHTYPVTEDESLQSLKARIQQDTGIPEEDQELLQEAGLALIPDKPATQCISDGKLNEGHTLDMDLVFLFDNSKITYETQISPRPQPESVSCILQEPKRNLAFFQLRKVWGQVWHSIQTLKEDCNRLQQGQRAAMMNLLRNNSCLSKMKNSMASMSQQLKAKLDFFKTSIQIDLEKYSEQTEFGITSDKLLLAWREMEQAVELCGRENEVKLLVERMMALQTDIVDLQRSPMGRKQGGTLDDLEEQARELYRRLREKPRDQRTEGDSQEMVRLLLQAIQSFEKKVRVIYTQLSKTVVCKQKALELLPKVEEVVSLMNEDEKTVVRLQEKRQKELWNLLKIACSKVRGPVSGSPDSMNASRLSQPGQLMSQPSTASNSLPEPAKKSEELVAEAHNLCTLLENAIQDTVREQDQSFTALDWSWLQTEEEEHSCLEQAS
As to conditions: MOLM-13, 2 h, 100 nM. Here is the method:
as §1

Test [6] concerns the target MAST3 (Homo sapiens, UniProt O60307). Conditions: MOLM-13; 100 nM, 2 hours; Lys2; read-out: Inhibition vs DMSO. How it is done: as §1
Test [7] has as its target ATR (Homo sapiens, UniProt Q13535). As to conditions: MOLM-13; 100 nM, 2 hours; ATP; read-out: Inhibition vs DMSO. Here is the method:
as §1

Test [8] addresses NLK (Homo sapiens, UniProt Q9UBE8). As to conditions: MOLM-13; 100 nM, 2 hours; Lys2; read-out: Inhibition vs DMSO. Here is the method: as §1
Test [9] has as its target T3, RSK2 domain2 (Homo sapiens, UniProt P51812).
T3 construct: RSK2 domain2
As to conditions: MOLM-13; 100 nM, 2 hours; Lys2; read-out: Inhibition vs DMSO. How it is done: as §1

The target in test [10] is T4, PIP4K2C (Homo sapiens, UniProt Q8TBX8).
T4 sequence (Q8TBX8 1-421): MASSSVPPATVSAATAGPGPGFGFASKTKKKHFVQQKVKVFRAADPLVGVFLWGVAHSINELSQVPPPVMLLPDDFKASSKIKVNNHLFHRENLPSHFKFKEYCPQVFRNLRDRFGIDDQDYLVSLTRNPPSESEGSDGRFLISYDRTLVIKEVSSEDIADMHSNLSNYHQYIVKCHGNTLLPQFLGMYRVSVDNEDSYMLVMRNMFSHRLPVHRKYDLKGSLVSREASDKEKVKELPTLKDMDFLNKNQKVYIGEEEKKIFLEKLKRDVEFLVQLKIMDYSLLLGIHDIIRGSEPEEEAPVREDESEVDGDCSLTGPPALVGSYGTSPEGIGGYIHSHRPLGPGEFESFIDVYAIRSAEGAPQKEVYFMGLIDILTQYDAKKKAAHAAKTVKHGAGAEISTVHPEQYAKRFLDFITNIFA
As to conditions: MOLM-13, 2 h, 100 nM, ATP, read-out: Inhibition vs DMSO. Here is the method:
as §1

Test [11] deals with T5, JAK2 domain2 (Homo sapiens, UniProt O60674).
T5 construct: JAK2 domain2
Conditions: 100 nM, 2 hours; Activation Loop. Here is the method: as §1

Test [12] concerns the target CDK10 (Homo sapiens, UniProt Q15131). Conditions: MOLM-13; 100 nM, 2 hours; Lys2; read-out: Inhibition vs DMSO. How it is done: as §1
Test [13] has as its target CaMK2d (Homo sapiens, UniProt Q13557). Conditions: MOLM-13; 100 nM, 2 hours; Lys1; read-out: Inhibition vs DMSO. Here is the method:
as §1

Test [14] addresses MAPKAPK3 (Homo sapiens, UniProt Q16644). As to conditions: MOLM-13; 100 nM, 2 hours; ATP Loop; read-out: Inhibition vs DMSO. Here is the method: as §1
The target of test [15] is T6, MLKL (Homo sapiens, UniProt Q8NB16).
T6 sequence (Q8NB16 1-471): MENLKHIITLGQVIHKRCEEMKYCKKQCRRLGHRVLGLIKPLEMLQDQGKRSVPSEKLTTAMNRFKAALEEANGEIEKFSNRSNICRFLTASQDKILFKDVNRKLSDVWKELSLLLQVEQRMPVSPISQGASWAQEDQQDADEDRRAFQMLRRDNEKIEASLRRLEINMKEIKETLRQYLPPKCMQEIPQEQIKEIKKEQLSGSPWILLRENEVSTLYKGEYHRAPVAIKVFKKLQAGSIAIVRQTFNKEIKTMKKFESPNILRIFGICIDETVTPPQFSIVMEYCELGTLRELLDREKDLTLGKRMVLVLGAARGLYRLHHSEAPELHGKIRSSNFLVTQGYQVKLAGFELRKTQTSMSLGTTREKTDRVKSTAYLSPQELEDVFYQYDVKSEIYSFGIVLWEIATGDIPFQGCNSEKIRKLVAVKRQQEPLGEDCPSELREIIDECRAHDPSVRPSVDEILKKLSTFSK
As to conditions: MOLM-13, 2 h, 100 nM. How it is done: as §1

Test [16] deals with MAP4K5 (Homo sapiens, UniProt Q9Y4K4). Conditions: MOLM-13, 2 h, 100 nM. Here is the method: as §1
Where [17] appears, read: Lys1, read-out: Inhibition vs DMSO.
Where [18] appears, read: Lys2, read-out: Inhibition vs DMSO.

A word on the inhibition: it is the change of the read-out against control, counted positive when it falls.

SMILES strings stand for the structures. Where two headings read alike, the source gives them in different places.

T1 sequence (O75676 whole entry, the tested form may be a part): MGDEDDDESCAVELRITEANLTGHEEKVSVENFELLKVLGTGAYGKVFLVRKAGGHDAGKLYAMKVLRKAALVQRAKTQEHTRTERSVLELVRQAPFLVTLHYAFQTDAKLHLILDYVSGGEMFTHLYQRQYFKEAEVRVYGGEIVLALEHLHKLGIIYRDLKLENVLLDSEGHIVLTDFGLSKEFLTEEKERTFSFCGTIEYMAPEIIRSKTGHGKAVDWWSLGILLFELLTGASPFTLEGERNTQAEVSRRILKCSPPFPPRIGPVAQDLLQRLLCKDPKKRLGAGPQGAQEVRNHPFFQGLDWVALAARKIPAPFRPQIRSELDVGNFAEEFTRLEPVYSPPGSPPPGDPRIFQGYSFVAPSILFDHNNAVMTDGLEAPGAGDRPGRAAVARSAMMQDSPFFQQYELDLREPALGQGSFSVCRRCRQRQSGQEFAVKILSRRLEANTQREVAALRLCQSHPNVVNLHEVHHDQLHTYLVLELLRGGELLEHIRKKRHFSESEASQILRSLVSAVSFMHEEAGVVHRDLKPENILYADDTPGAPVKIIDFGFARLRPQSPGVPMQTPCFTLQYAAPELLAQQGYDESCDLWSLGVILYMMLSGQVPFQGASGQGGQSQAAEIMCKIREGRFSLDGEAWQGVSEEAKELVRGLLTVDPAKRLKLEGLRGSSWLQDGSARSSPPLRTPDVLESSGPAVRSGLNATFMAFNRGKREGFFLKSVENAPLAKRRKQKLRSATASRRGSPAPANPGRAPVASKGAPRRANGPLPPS
Chain of MAP4K5 (Q9Y4K4 whole entry): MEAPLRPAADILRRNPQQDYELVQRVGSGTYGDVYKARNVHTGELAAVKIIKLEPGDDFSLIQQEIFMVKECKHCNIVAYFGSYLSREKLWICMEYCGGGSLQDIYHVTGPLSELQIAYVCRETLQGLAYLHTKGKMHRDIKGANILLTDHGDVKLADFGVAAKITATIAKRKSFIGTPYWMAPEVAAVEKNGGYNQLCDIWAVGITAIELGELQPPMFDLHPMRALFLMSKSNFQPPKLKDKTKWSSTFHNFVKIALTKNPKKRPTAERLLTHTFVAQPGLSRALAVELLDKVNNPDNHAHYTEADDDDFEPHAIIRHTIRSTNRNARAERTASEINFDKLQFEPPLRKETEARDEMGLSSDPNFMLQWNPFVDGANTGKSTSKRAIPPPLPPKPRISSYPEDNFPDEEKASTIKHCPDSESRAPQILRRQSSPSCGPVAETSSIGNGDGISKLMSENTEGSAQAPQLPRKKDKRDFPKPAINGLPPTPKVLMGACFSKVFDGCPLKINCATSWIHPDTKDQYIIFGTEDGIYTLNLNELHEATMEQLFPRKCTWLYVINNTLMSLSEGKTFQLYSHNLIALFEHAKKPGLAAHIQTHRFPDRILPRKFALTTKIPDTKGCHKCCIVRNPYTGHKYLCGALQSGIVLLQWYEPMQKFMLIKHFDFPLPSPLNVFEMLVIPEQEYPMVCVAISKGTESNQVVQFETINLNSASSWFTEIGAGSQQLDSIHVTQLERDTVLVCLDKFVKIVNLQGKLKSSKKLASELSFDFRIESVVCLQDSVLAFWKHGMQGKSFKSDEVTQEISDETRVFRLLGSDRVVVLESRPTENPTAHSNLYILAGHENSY
Chain of TAK1 (O43318 whole entry): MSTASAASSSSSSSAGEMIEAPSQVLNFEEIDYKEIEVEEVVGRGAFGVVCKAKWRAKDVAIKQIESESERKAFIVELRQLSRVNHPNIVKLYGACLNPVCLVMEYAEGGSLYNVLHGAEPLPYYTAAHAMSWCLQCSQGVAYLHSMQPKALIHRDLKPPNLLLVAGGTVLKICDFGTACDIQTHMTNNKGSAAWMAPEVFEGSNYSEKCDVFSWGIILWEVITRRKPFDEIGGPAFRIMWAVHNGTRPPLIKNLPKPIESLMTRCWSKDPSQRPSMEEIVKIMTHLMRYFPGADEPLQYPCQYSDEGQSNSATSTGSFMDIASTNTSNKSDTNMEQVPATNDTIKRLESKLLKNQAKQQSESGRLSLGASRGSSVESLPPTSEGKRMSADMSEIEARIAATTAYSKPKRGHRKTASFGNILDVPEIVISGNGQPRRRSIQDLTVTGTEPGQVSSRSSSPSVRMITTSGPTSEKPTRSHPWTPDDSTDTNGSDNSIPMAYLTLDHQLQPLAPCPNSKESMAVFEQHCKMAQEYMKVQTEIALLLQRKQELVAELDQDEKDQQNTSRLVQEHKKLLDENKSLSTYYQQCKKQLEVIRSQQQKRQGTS
T5 sequence (O60674 whole entry, the tested form may be a part): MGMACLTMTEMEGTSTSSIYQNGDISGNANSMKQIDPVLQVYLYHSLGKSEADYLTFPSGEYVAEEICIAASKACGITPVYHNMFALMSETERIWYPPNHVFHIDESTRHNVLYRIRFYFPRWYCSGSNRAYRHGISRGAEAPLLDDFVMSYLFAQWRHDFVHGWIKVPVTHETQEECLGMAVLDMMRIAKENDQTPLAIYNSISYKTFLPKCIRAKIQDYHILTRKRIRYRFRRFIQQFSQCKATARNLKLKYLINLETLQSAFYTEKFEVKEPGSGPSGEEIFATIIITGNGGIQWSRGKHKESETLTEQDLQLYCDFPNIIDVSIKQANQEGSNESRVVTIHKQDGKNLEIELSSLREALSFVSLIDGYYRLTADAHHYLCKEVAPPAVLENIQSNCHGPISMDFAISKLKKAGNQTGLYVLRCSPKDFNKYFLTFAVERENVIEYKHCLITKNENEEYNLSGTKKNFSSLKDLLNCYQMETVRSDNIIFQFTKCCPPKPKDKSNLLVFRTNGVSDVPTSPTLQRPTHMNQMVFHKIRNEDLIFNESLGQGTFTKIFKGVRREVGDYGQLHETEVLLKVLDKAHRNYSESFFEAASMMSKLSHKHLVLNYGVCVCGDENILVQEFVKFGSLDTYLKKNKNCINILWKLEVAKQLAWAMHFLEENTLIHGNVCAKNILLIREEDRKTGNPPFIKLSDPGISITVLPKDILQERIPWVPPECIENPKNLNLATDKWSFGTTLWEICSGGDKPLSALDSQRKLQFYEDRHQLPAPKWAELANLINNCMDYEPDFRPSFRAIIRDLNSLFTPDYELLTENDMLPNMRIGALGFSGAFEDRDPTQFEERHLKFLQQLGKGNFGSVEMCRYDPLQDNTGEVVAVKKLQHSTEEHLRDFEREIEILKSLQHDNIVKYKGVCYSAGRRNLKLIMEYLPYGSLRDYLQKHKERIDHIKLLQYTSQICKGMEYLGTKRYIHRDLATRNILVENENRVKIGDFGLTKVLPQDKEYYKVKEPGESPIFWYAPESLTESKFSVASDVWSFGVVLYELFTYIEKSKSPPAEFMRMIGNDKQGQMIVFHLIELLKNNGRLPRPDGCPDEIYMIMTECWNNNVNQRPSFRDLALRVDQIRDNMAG
Chain of eEF2K (O00418 whole entry): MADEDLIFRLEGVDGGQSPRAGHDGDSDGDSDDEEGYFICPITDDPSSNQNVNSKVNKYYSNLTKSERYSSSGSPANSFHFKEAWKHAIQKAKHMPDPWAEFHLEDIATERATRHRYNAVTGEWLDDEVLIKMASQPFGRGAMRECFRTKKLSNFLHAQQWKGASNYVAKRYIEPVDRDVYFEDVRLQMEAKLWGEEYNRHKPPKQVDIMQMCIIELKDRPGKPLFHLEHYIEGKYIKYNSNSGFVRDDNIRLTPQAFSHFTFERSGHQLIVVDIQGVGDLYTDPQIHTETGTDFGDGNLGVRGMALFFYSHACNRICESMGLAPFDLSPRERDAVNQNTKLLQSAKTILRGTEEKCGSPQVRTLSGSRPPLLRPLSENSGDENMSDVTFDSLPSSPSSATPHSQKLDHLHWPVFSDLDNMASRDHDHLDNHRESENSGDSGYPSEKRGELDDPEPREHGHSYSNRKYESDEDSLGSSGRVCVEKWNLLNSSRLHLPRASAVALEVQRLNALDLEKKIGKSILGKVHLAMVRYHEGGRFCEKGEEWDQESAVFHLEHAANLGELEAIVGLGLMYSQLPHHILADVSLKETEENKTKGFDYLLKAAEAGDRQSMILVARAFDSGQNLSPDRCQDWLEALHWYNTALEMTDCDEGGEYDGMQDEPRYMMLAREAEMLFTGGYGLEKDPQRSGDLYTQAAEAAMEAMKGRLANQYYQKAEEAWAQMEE
T3 sequence (P51812 whole entry, the tested form may be a part): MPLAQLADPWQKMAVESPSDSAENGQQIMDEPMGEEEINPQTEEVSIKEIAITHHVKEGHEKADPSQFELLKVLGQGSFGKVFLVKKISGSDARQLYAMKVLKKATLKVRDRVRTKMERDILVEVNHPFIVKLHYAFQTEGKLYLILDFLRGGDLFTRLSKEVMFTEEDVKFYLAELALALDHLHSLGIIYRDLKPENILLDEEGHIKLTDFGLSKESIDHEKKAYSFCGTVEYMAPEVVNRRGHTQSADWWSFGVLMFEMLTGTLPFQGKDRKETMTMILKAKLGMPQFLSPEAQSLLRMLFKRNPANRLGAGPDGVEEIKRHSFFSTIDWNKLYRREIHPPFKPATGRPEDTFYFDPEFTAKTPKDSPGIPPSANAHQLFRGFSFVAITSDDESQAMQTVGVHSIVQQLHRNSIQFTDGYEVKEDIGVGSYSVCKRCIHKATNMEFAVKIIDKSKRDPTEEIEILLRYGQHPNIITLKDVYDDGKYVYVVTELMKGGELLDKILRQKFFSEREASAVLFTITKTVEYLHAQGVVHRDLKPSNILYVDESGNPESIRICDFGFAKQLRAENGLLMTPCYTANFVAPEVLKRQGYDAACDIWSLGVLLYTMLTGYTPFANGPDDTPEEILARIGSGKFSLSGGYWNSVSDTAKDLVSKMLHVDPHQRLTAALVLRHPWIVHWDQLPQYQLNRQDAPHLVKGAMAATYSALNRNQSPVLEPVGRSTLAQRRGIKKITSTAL

In the case of `CN1CCN(Cc2ccc(Nc3ncc(Cl)c(Nc4ccccc4S(=O)(=O)N(C)C)n3)cc2)CC1` [TP-0903], the inhibition at 0.1 µM is -29.5% in [1]; -23.8% in test [2]; 13.3% in test [3] (setting [17]); 26.8% in test [3] (setting [18]); -2.8% in test [4]; -4.8% in [5] (setting [17]). The inhibition at 0.1 µM in [5] (setting [18]) was -10.5%; in [6], -22.3%; in test [7], 7.6%; in test [8], -30.4%; in test [9] it was -47.6%; in [10] (TLVIKEVSSEDIADMHSNLSNYHQYIVK), -26%. Also, the inhibition at 0.1 µM was -26.5% in test [10] (VKELPTLKDMDFLNK); 33.7% in test [12]; 7.5% in test [13]; -45.7% in test [14]; -29% in [15] (Activation Loop, read-out: Inhibition vs DMSO); -26.9% in [15] (setting [17]). Further, the inhibition at 0.1 µM in [15] (Protein Kinase Domain, read-out: Inhibition vs DMSO) is -65.7%; in [16] (setting [17]), 54.8%; in test [16] (setting [18]), 42.9%. In [11], the “Inhibition vs DMSO” value is on record as -68.6%.
